# Reference: PubChem BioAssay AID1208 (EPA DSSTox, 2008)
# Active and inactive are the calls of the source.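 Rule for the calls: active = at least one rat sex group has a carcinogenic potency value and tumor site recorded; inconclusive = only rat studies were judged inadequate by the national testing program; inactive = no potency or tumor site, with negative rat experiments.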
# Test system: rat chronic carcinogenicity bioassay, TD50
# Assay: DSSTox (CPDBAS) Carcinogenic Potency Database Summary Rat Bioassay Results
# Conditions: TD50_Rat_Note: TD50_Rat_mmol was not calculated for this mixture, but Activiity Score is assigned value of 50 to indicate active; TargetSites_Rat_Female: liver; active compounds read low
# In short: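 Chronic long-term rat cancer bioassays from literature and NCI/NTP, taking the most positive result per sex. TD50 in mmol converted to a 1–100 Activity Score from log10(1/TD50). Mixtures lacking TD50 scored 50.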
row,Structure (SMILES),Potency [mg/kg/day]
1,Clc1cccc(-c2cc(Cl)cc(Cl)c2)c1,53.9

# Same assay, conditions: TD50_Rat_Note: TD50 is harmonic mean of more than one positive test; TargetSites_Rat_Female: hematopoietic system; active compounds read low
row,Structure (SMILES),Potency [mg/kg/day]
1,COC(C)(C)C,702

# Same assay, conditions: TD50_Rat_Note: TD50 is harmonic mean of more than one positive test; TargetSites_Rat_Female: hematopoietic system; uterus; active compounds read low
row,Structure (SMILES),Potency [mg/kg/day]
1,COc1cc(-c2ccc(N=C=O)c(OC)c2)ccc1N=C=O,1630

# Same assay, conditions: TD50_Rat_Note: TD50 is harmonic mean of more than one positive test; TargetSites_Rat_Female: mammary gland; skin; uterus; active compounds read low
row,Structure (SMILES),Potency [mg/kg/day]
1,CCN(N=O)C(=O)NCCO,0.522

# Same assay, conditions: TD50_Rat_Note: TD50 is harmonic mean of more than one positive test; TargetSites_Rat_Female: stomach; active compounds read low
row,Structure (SMILES),Potency [mg/kg/day]
1,Oc1ccc2c(c1)OCO2,1350

# Same assay, conditions: TD50_Rat_Note: TD50 is harmonic mean of more than one positive test; greater than ten-fold variation among TD50 values for positive res; TargetSites_Rat_Female: small intestine; urinary bladder; active compounds read low
row,Structure (SMILES),Potency [mg/kg/day]
1,O=c1c(O)c(-c2ccc(O)c(O)c2)oc2cc(O)cc(O)c12,10.1

# Same assay, conditions: TD50_Rat_Note: TD50 is harmonic mean of more than one positive test; harmonic mean of TD50 includes a value for upper 99% confidence li; TargetSites_Rat_Female: lung; mammary gland; stomach; uterus; active compounds read low
row,Structure (SMILES),Potency [mg/kg/day]
1,CCCCCCN(N=O)C(N)=O,0.513

# Same assay, conditions: TD50_Rat_Note: no positive results
row,Structure (SMILES),outcome
1,C[C@@H]1C[C@H]2[C@@H]3CCC4=CC(=O)C=C[C@]4(C)[C@@]3(F)[C@@H](O)C[C@]2(C)[C@@]1(O)C(=O)CO,inactive; no positive results
2,CC(C)Cc1ccc(C(C)C(=O)O)cc1 (centres undefined),inactive; no positive results
3,CCCCCCCN,inactive; no positive results
4,CC(O)CNCC(C)O (centres undefined),inactive; no positive results
5,C/C=N/O,inactive; no positive results

# Same assay, conditions: TD50_Rat_Note: no positive results; TargetSites_Rat_Female: no positive results
row,Structure (SMILES),outcome
1,CN1C(=O)CN=C(c2ccccc2)c2cc(Cl)ccc21,inactive; no positive results
2,C[C@]12CC[C@H]3C(=CCc4cc(OS(=O)(=O)O)ccc43)[C@@H]1CCC2=O,inactive; no positive results
3,Brc1cc(Br)c2cccnc2c1,inactive; no positive results
4,CCCCOCCO,inactive; no positive results
5,CC(C)NCC(O)c1ccc(NS(C)(=O)=O)cc1 (centres undefined),inactive; no positive results
6,CCC1C(=O)OCC1Cc1cncn1C (centres undefined),inactive; no positive results
7,O=c1c(O)c(-c2ccc(O)c(O)c2)oc2cc(O)cc(O)c12,inactive; no positive results
8,CCC(O)OC(O)CC (centres undefined),inactive; no positive results
9,S=C(NC1CCCCC1)NC1CCCCC1,inactive; no positive results
10,CCc1nc(N)nc(N)c1-c1ccc(Cl)cc1,inactive; no positive results
11,Cc1cnc(NC(=O)C2=C(O)c3ccccc3S(=O)(=O)N2C)s1,inactive; no positive results
12,CCCCCCCCCCCCCCCC(=O)CC(=O)CCCCCCCCCCCCCCC,inactive
13,Cc1ccc(NC(N)=O)cc1,inactive; no positive results
14,N[C@@H](CCC(=O)O)C(=O)O,inactive; no positive results
15,CCCCC(CC)COP(=O)(OCC(CC)CCCC)OCC(CC)CCCC (centres undefined),inactive; no positive results
16,CCCCCCCCCc1ccc(OCCOCCO)cc1,inactive
17,C=C(C)C#N,inactive; no positive results
18,C=C(Cl)Cl,inactive; no positive results
19,CNC(=O)O/N=C(\SC)C(=O)N(C)C,inactive; no positive results
20,CN(C)CCN(Cc1ccco1)c1ccccn1,inactive; no positive results
21,CC(=O)Oc1c(C)c(C)c2c(c1C)CCC(C)(CCCC(C)CCCC(C)CCCC(C)C)O2 (centres undefined),inactive; no positive results

# Same assay, conditions: TargetSites_Rat_Female: esophagus; liver; oral cavity; active compounds read low
row,Structure (SMILES),Potency [mg/kg/day]
1,CC1SC(C)N(N=O)C(C)S1 (centres undefined),0.483

# Same assay, conditions: TargetSites_Rat_Female: no positive results; active compounds read low
row,Structure (SMILES),Potency [mg/kg/day]
1,Nc1ccccc1C(=O)OC/C=C/c1ccccc1,12100
2,Nc1nc(N)nc(N)n1,735
3,CC(F)(Cl)Cl,5260

# Same assay, conditions: active compounds read low
row,Structure (SMILES),Potency [mg/kg/day]
1,COc1cccc(O)c1O,48.7
2,CCN=[N+]([O-])CC,0.022
3,[O]=[Cr](=[O])([OH])[O][Cr](=[O])(=[O])[OH],4.64
4,CN(C)c1ccc(C(=N)c2ccc(N(C)C)cc2)cc1,11
5,C[C@@H]1C[C@H](C)CN(S(=O)(=O)c2ccc(Cl)c(C(=O)O)c2)C1,4.85
6,O=C1c2ccccc2C(=O)c2c(O)c(O)cc(O)c21,678
7,CN(N=O)C(N)=O,0.0927
